Usually Ki stands for the dissociation constant of the complex between target and ligand, obtained from inhibition or displacement. Higher therefore signals weaker binding. Usually melting point stands for the temperature of the solid-liquid transition.

Among the data in patent US20110059982A1, “AZAINDOLE COMPOUNDS FOR TREATMENT OF CENTRAL NERVOUS SYSTEM DISORDERS” (MERCK PATENT GESELLSCHAFT MIT BESCHRANKTER HAFTUNG, priority 2008, published 2011) are IC50, Ki and melting point values, retold here.

One data set concerns the target T1, Serotonin reuptake (Rattus norvegicus, UniProt P31652).
T1 construct: from tissue
Nature of the data set: Serotonin re-uptake inhibition, synaptosomal, [3H]5-HT as tracer. The conditions noted are these: [3H]5-HT tracer, imipramine as reference, read-out: IC50 (nmol/L), Serotonin reuptake. The data set is classed as biochemical. As for the experimental part: Serotonin re-uptake inhibition was determined by means of synaptosomal re-uptake inhibition as described by Perovic & Muller et al. (Arzneim-Forsch. Drug. Res. 1995, 45:1145-1148) with [^3H]5-HT as tracer and imipramine as reference.

A further data set deals with T2, Norepinephrine uptake (Rattus norvegicus, UniProt Q63380).
T2 construct: from tissue
Nature of the data set: Norepinephrine uptake, [3H]NE as tracer. Particulars: [3H]NE tracer, protriptyline as reference; read-out: IC50 (nmol/L), Norepinephrine. The data set is classed as biochemical. As to the method:
Norepinephrine uptake was determined as described in the Perovic & Muller work with [^3H]NE as tracer and protriptyline as reference.

The next data set deals with T3, Dopamine uptake (Rattus norvegicus, UniProt P23977).
T3 construct: A crude synaptosomal membrane preparation from various regions of rat brain was prepared; from tissue; host or cells: crude synaptosomal preparation from rat brain (Sprague-Dawley)
Put plainly: [3H]Dopamine uptake inhibition in crude synaptosomal preparation. In kind it is biochemical. Particulars: rat brain synaptosomal preparation, [3H]DA tracer, GBR12909 as reference; read-out: IC50 (nmol/L), Dopamine. As to the method: Dopamine uptake inhibition was determined as described by Janowsky et al. (Neurochem. 1986, 46:1272-1276) with [^3H]DA as tracer and GBR12909 as reference.
[^3H]Dopamine uptake inhibition is as provided below:
Tissue preparation—A crude synaptosomal membrane preparation from various regions of rat brain was prepared as described by Berger et al. (Eur. J. Pharmacol. 1985, 107:289-290). Brain tissue from adult male Sprague-Dawley rats (150-200 g) was homogenized in 10 volumes of ice-cold sucrose (0.32 M) using a Teflon glass homogenizer, and centrifuged at 1000 g for 10 min. […] The final protein concentration was 100-200 μg protein/mL, as determined by the method of Lowry et al. (J. Biol. Chem. 1951, 193:265-275).
The uptake of [^3H]dopamine in a crude synaptosomal preparation was measured as described by Harris et al. (Life Sci. 1973, 13:303-312). […] The filters were rinsed three times with 4 mL of ice-cold buffer (Tris-HCl, 50 mM, pH 7.7, containing 120 mM NaCl) and the radioactivity remaining on the filters was measured by conventional liquid scintillation spectrometry. […]
Assay tubes contained 250 μL of the tissue preparation, 50 μL of [^3H]dopamine (40 nM) 200 μL of buffer or various uptake inhibitors, and 1.0 mL of Krebs-Ringer bicarbonate buffer (pH 7.4). […] Radioactivity remaining on the filters was measured by conventional liquid scintillation spectrometry.

The next data set deals with T4, 5-HT1A receptor (Homo sapiens, UniProt P08908).
T4 sequence (P08908 1-422): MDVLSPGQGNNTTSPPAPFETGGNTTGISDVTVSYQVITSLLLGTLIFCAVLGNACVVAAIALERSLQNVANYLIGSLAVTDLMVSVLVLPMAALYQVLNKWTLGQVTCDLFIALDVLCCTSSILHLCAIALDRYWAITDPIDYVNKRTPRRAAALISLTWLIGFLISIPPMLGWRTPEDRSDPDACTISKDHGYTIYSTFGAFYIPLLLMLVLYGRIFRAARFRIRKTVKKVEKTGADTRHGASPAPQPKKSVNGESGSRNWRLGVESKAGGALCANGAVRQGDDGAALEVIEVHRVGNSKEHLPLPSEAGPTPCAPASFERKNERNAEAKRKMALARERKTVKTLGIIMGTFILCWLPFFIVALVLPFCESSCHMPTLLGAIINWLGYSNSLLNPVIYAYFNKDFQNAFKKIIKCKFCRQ
Put plainly: 5-HT1A binding assay, [3H]8-OH-DPAT as ligand. The conditions noted are these: 8-OH-DPAT as reference; for IC50: read-out: IC50 (nmol/L), 5-HT1A. As to the method:
Binding properties at the 5-HT1A receptor were determined by means of the 5-HT1A binding assay as described in the literature by Mulheron et al. (J. Biol. Chem. 1994, 269:12954-12962) with [^3H]8-OH-DPAT as ligand and 8-OH-DPAT as reference.

T1 sequence (P31652 whole entry): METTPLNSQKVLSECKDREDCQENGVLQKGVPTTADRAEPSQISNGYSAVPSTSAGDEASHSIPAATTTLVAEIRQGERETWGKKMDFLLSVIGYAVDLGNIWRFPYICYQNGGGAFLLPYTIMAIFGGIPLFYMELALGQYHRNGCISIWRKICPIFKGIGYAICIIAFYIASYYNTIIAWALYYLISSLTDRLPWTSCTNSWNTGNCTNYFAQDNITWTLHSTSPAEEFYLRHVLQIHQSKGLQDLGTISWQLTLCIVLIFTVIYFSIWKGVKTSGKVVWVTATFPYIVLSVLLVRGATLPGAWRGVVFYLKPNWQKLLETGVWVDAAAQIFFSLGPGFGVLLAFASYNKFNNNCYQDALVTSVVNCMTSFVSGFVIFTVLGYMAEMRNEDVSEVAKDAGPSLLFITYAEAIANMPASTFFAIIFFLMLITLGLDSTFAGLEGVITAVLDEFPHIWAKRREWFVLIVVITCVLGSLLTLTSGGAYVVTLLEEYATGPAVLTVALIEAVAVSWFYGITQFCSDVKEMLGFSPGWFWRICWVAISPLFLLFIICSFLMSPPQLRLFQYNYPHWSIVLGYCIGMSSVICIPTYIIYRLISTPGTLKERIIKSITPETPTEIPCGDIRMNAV
T2 sequence (Q63380 1-617): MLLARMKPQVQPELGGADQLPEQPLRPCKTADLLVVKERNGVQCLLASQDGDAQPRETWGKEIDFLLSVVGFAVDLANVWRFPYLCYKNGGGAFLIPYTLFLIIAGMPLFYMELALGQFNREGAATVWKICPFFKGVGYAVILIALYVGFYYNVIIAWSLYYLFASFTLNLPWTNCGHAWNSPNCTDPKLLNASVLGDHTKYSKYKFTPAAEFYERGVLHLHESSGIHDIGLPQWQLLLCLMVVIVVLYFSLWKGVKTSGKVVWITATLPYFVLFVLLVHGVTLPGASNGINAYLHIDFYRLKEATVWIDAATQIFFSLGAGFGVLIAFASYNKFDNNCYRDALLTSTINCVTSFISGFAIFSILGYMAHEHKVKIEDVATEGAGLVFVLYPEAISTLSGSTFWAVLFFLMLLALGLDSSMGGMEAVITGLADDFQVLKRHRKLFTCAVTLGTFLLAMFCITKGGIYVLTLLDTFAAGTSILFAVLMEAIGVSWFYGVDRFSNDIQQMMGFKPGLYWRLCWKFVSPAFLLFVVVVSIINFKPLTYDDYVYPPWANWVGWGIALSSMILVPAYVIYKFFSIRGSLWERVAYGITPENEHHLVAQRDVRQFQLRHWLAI
T3 sequence (P23977 whole entry): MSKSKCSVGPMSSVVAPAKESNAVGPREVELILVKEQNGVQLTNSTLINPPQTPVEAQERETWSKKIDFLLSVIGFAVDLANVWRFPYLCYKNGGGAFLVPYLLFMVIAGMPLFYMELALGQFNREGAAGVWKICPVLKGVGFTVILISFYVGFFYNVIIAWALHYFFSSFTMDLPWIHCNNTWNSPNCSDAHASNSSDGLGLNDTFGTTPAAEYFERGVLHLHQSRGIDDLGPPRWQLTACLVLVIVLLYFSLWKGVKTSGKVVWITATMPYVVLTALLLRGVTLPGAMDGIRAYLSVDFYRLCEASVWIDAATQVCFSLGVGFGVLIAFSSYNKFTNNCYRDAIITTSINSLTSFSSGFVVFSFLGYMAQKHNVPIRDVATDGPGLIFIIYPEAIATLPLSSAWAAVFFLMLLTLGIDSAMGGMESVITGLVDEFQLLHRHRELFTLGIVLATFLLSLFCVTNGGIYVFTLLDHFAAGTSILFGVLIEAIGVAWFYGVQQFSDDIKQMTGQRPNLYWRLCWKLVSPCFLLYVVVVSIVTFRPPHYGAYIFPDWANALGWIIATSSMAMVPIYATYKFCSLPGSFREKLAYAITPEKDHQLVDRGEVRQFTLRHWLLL

Consider `N#Cc1cnc2[nH]cc(CCCCN3CCN(c4ccc5oc(C(N)=O)cc5c4)CC3)c2c1` [Example 1, 5-{4-[4-(5-Cyano-1H-pyrrolo[2,3-b]pyridine-3-yl)-butyl]-piperazin-1-yl}-benzofuran-2-carboxylic acid amide], for which the IC50 on Serotonin reuptake was 51 to 100 nmol/L; at Norepinephrine uptake, 101 to 150 nmol/L; at Dopamine uptake, over 200 nmol/L; at 5-HT1A receptor, 151 to 200 nmol/L. The Ki on 5-HT1A receptor was in the range of 101 to 150 nM.
On the same counts, the results for `N#Cc1ccc2[nH]cc(CCCCN3CCN(c4ccc5oc(C(N)=O)cc5c4)CC3)c2n1` [Example 2, 5-{4-[4-(5-Cyano-1H-pyrrolo[3,2-b]pyridine-3-yl)-butyl]-piperazin-1-yl}-benzofuran-2-carboxylic acid amide] are over 200 nmol/L, 151 to 200 nmol/L, over 200 nmol/L, 51 to 100 nmol/L and 1 to 50 nM.
In turn, `N#Cc1cnc2[nH]cc(CCCCN3CCC(Oc4ccc5c(c4)OCCO5)CC3)c2c1` [Example 3, 3-{4-[4-(2,3-Dihydro-benzo[1,4]dioxin-6-yloxy)-piperidin-1-yl]-butyl}-1H-pyrrolo[2,3-b]pyridine-5-carbonitrile] showed a melting point of 240 to 242 °C.
